# Experimental data from the supplement of paper PMC4862054.
# Tests used:
# Details in all cases: incubation time: 72 h
# HCC1599 [1] = assay: normalised viability (% of control), CellTiter-Blue; higher = more viable cells (100 = DMSO, 0 = benzethonium chloride kill control)
# Method in brief: (§1)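 Breast cancer cell lines in 20 µl suspension were seeded onto 384-well plates pre-loaded with compound dissolved in 5 µl medium, then incubated 72 h. CellTiter-Blue reagent (2.5 µl) was added for 2 h at 37 °C and fluorescence read at 560/590 nm. Each plate was normalised to vehicle (100) and a positive kill control (0), with Z'-factor quality control. The value is normalised viability at one listed concentration of the series.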
# HDQ-P1 [2] = assay: as above
# Method in brief: as §1
# HCC1937 [3] = assay: as above
# Method in brief: as §1
# Hs578T [4] = assay: as above
# Method in brief: as §1
# SK-BR-3 [5] = assay: as above
# Method in brief: as §1
# DU-4475 [6] = assay: as above
# Method in brief: as §1
# CAL-120 [7] = assay: as above
# Method in brief: as §1
# MDA-MB-468 [8] = assay: as above
# Method in brief: as §1
# BT-474 [9] = assay: as above
# Method in brief: as §1
# MDA-MB-231 [10] = assay: as above
# Method in brief: as §1
# MDA-MB-453 [11] = assay: as above
# Method in brief: as §1
# MDA-MB-436 [12] = assay: as above
# Method in brief: as §1
# CAL-51 [13] = assay: as above
# Method in brief: as §1
# CAL-148 [14] = assay: as above
# Method in brief: as §1
# CAL-85-1 [15] = assay: as above
# Method in brief: as §1
# HCC1143 [16] = assay: as above
# Method in brief: as §1
# BT-549 [17] = assay: as above
# Method in brief: as §1
# MFM-223 [18] = assay: as above
# Method in brief: as §1
# HCC1599 [19] = assay: normalised response (% of control), CellTiter-Glo; higher = more viable cells (100 = DMSO, 0 = benzethonium chloride kill control)
# Method in brief: (§2)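 Breast cancer cell lines in 20 µl suspension were added to 384-well plates containing compound at 5 concentrations, spaced in 10-fold steps across a 10,000-fold range chosen for each compound, and incubated for 72 h. CellTox Green fluorescence was read at 485/520 nm, followed by CellTiter-Glo luminescence after 10 min at room temperature. Signals on each plate were normalised so that 0.1 % DMSO equals 100 and a positive kill control equals 0. Every value in the table is the normalised signal at one concentration of the series.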
# HDQ-P1 [20] = assay: as above
# Method in brief: as §2
# MCF-10A = assay: as above
# Method in brief: as §2
# HCC1937 [21] = assay: as above
# Method in brief: as §2
# Hs578T [22] = assay: as above
# Method in brief: as §2
# SK-BR-3 [23] = assay: as above
# Method in brief: as §2
# DU-4475 [24] = assay: as above
# Method in brief: as §2
# CAL-120 [25] = assay: as above
# Method in brief: as §2
# MDA-MB-468 [26] = assay: as above
# Method in brief: as §2
# BT-474 [27] = assay: as above
# Method in brief: as §2
# MDA-MB-231 [28] = assay: as above
# Method in brief: as §2
# MDA-MB-453 [29] = assay: as above
# Method in brief: as §2
# MDA-MB-436 [30] = assay: as above
# Method in brief: as §2
# CAL-51 [31] = assay: as above
# Method in brief: as §2
# CAL-148 [32] = assay: as above
# Method in brief: as §2
# CAL-85-1 [33] = assay: as above
# Method in brief: as §2
# HCC1143 [34] = assay: as above
# Method in brief: as §2
# BT-549 [35] = assay: as above
# Method in brief: as §2
# MFM-223 [36] = assay: as above
# Method in brief: as §2
Structure (SMILES),normalised viability (HCC1599 [1]),normalised viability (HDQ-P1 [2]),normalised viability (HCC1937 [3]),normalised viability (Hs578T [4]),normalised viability (SK-BR-3 [5]),normalised viability (DU-4475 [6]),normalised viability (CAL-120 [7]),normalised viability (MDA-MB-468 [8]),normalised viability (BT-474 [9]),normalised viability (MDA-MB-231 [10]),normalised viability (MDA-MB-453 [11]),normalised viability (MDA-MB-436 [12]),normalised viability (CAL-51 [13]),normalised viability (CAL-148 [14]),normalised viability (CAL-85-1 [15]),normalised viability (HCC1143 [16]),normalised viability (BT-549 [17]),normalised viability (MFM-223 [18]),normalised response (HCC1599 [19]),normalised response (HDQ-P1 [20]),normalised response (MCF-10A),normalised response (HCC1937 [21]),normalised response (Hs578T [22]),normalised response (SK-BR-3 [23]),normalised response (DU-4475 [24]),normalised response (CAL-120 [25]),normalised response (MDA-MB-468 [26]),normalised response (BT-474 [27]),normalised response (MDA-MB-231 [28]),normalised response (MDA-MB-453 [29]),normalised response (MDA-MB-436 [30]),normalised response (CAL-51 [31]),normalised response (CAL-148 [32]),normalised response (CAL-85-1 [33]),normalised response (HCC1143 [34]),normalised response (BT-549 [35]),normalised response (MFM-223 [36])
c1ccc2c(CCNc3ccc(Nc4ccncc4)cc3)c[nH]c2c1 [Serdemetan] (1 nM),92.4%,99.9%,95.9%,97.5%,95%,95.2%,79%,105%,99.8%,98.5%,99.2%,104%,110%,107%,85.3%,86.3%,106%,82.8%,115%,96.7%,86.1%,93.9%,99.2%,104%,95.7%,96.8%,98.8%,93.8%,97.1%,112%,86.4%,114%,91%,101%,98.5%,102%,98.8%
CN(C)CCOc1ccc(/C(=C(/CCCl)c2ccccc2)c2ccccc2)cc1 [Toremifene] (1 nM),105%,107%,142%,106%,102%,107%,83.5%,113%,114%,101%,112%,126%,104%,108%,90.9%,97.7%,113%,104%,106%,98.6%,107%,96.2%,110%,111%,103%,103%,106%,102%,106%,119%,98.7%,114%,104%,98.4%,98.5%,104%,103%
